In article PMC6105164 (Cancer Chemotherapy and Pharmacology, 2018):
Entries after “also recorded” stand apart in the source; their conditions may differ.

Assays:
RAS-mutated patients = details: previous phase I/II trials in the USA; cited from earlier work
[1] = Urine concentration of Salirasib (LC-MS/MS), day 1; assay type: in vivo, human; details: within 24 h, any dosing group (200, 600, 1000 mg sampled)
Procedure: Blood samples were collected 10 times on day 1 (before drug administration, and 0.5-, 1-, 1.5-, 2-, 4-, 6-, 8-, 12-, and 24-h post-administration), once on days 4, 7, and 14, and 9 times on day 21 (before morning dose, and 0.5, 1, 1.5, 2, 4, 6, 8, and 12 h after morning dose but before evening dose). Urine samples were collected from patients who received 200, 600, or 1000 mg on day 1 (before drug administration, and 0–6-, 6–12-, 12–24-h post-administration).

[2] = tested on: relapsed/refractory solid tumors; test: Exploratory evaluation of efficacy (RECIST); assay type: in vivo, human; details: for Number of cycles completed, Median / Number of cycles completed, Range: completed = ≥ 60% of planned treatment
Source text: Treatment was immediately terminated at the patient’s request when DLT occurred; the study physician decided that continuation was inappropriate because of AEs; or if the tumor was classified as progressive disease (PD) according to the Response Evaluation Criteria in Solid Tumor (RECIST) Guideline. In cases of DLT, patients were allowed to continue the regimen with dose adjustments upon providing written agreement. At the end of the regimen, patients were allowed to repeat the same regimen if all of the following criteria were met: no DLT occurred; the tumor was not determined as PD; the study physicians agreed; and the patient provided written informed consent. […] Diagnostic imaging using computed tomography, magnetic resonance imaging (MRI), fluorodeoxyglucose-positron emission tomography (PET), and/or bone scintigraphy was performed depending on the tumors and clinical symptoms on day 22 of first and repeated regimens or at discontinuation. Specific tumor markers (e.g., carcinoembryonic antigen for colorectal cancer and prostate-specific antigen for prostate cancer) were measured on day 22 of first and repeated regimens or at discontinuation. Based on the information obtained, the efficacy was scored in accordance with the RECIST guideline.

[3] = 800 mg twice-daily, for one patient days until withdrawal were counted
[4] = 800 mg twice-daily, two patients not evaluated
[5] = patients with KRAS mutations (4 patients)

SMILES: CC(C)=CCC/C(C)=C/CC/C(C)=C/CSc1ccccc1C(=O)O [Salirasib, S-trans, trans-farnesylthiosalicylic acid]
- efficacy in RAS-mutated patients (RAS-mutated patients): not conclusive
- tolerability (RAS-mutated patients): good tolerability
- excretion in urine [1]: not excreted in urine
- Disease control rate (DCR): CR + PR + SD ([2]; 100 mg twice-daily): 1 (33.3) N (%)
- Objective response rate (ORR): CR + PR ([2]; 100 mg twice-daily): 0 (0.0) N (%)
- Progression-free survival, Median ([2]; 100 mg twice-daily): 22 days
- Progression-free survival, Range ([2]; 100 mg twice-daily): 16 to 53 days
- Response rate: Complete response (CR) ([2]; 100 mg twice-daily): 0 (0.0) N (%)
- Response rate: Partial response (PR) ([2]; 100 mg twice-daily): 0 (0.0) N (%)
- Response rate: Progressive disease (PD) ([2]; 100 mg twice-daily): 2 (66.7) N (%)
- Number of cycles completed, Median ([2]; 100 mg twice-daily): 1
- Number of cycles completed, Range ([2]; 100 mg twice-daily): 1–2
- Disease control rate (DCR): CR + PR + SD ([2]; 200 mg twice-daily): 3 (100.0) N (%)
- Objective response rate (ORR): CR + PR ([2]; 200 mg twice-daily): 0 (0.0) N (%)
- Progression-free survival, Median ([2]; 200 mg twice-daily): 213 days
- Progression-free survival, Range ([2]; 200 mg twice-daily): 57 to 373 days
- Response rate: Complete response (CR) ([2]; 200 mg twice-daily): 0 (0.0) N (%)
- Response rate: Partial response (PR) ([2]; 200 mg twice-daily): 0 (0.0) N (%)
- Response rate: Progressive disease (PD) ([2]; 200 mg twice-daily): 0 (0.0) N (%)
- Number of cycles completed, Median ([2]; 200 mg twice-daily): 7
- Number of cycles completed, Range ([2]; 200 mg twice-daily): 2–13
- Disease control rate (DCR): CR + PR + SD ([2]; 400 mg twice-daily): 2 (66.7) N (%)
- Objective response rate (ORR): CR + PR ([2]; 400 mg twice-daily): 0 (0.0) N (%)
- Progression-free survival, Median ([2]; 400 mg twice-daily): 56 days
- Progression-free survival, Range ([2]; 400 mg twice-daily): 22 to 91 days
- Response rate: Complete response (CR) ([2]; 400 mg twice-daily): 0 (0.0) N (%)
- Response rate: Partial response (PR) ([2]; 400 mg twice-daily): 0 (0.0) N (%)
- Response rate: Progressive disease (PD) ([2]; 400 mg twice-daily): 1 (33.3) N (%)
- Number of cycles completed, Median ([2]; 400 mg twice-daily): 2
- Number of cycles completed, Range ([2]; 400 mg twice-daily): 1–3
- Disease control rate (DCR): CR + PR + SD ([2]; 600 mg twice-daily): 2 (66.7) N (%)
- Objective response rate (ORR): CR + PR ([2]; 600 mg twice-daily): 0 (0.0) N (%)
- Progression-free survival, Median ([2]; 600 mg twice-daily): 135 days
- Progression-free survival, Range ([2]; 600 mg twice-daily): 79 to 319 days
- Response rate: Complete response (CR) ([2]; 600 mg twice-daily): 0 (0.0) N (%)
- Response rate: Partial response (PR) ([2]; 600 mg twice-daily): 0 (0.0) N (%)
- Response rate: Progressive disease (PD) ([2]; 600 mg twice-daily): 1 (33.3) N (%)
- Number of cycles completed, Median ([2]; 600 mg twice-daily): 5
- Number of cycles completed, Range ([2]; 600 mg twice-daily): 3–11
- Number of cycles completed, Median ([2]; 800 mg twice-daily): 1
- Number of cycles completed, Range ([2]; 800 mg twice-daily): 1–11
- Progression-free survival, Median [2, 3]: 29 days
- Progression-free survival, Range [2, 3]: 22 to 307 days
- Disease control rate (DCR): CR + PR + SD [2, 4]: 1 (16.7) N (%)
- Objective response rate (ORR): CR + PR [2, 4]: 0 (0.0) N (%)
- Response rate: Complete response (CR) [2, 4]: 0 (0.0) N (%)
- Response rate: Partial response (PR) [2, 4]: 0 (0.0) N (%)
- Response rate: Progressive disease (PD) [2, 4]: 3 (50.0) N (%)
- Disease control rate (DCR): CR + PR + SD ([2]; 1000 mg twice-daily): 1 (33.3) N (%)
- Objective response rate (ORR): CR + PR ([2]; 1000 mg twice-daily): 0 (0.0) N (%)
- Progression-free survival, Median ([2]; 1000 mg twice-daily): 22 days
- Progression-free survival, Range ([2]; 1000 mg twice-daily): 22 to 91 days
- Response rate: Complete response (CR) ([2]; 1000 mg twice-daily): 0 (0.0) N (%)
- Response rate: Partial response (PR) ([2]; 1000 mg twice-daily): 0 (0.0) N (%)
- Response rate: Progressive disease (PD) ([2]; 1000 mg twice-daily): 2 (66.7) N (%)
- Number of cycles completed, Median ([2]; 1000 mg twice-daily): 1
- Number of cycles completed, Range ([2]; 1000 mg twice-daily): 1–3
- Disease control rate (DCR): CR + PR + SD ([2]; Total, all dose groups): 10 (47.6) N (%)
- Objective response rate (ORR): CR + PR ([2]; Total, all dose groups): 0 (0.0) N (%)
- Progression-free survival, Median ([2]; Total, all dose groups): 53 days
- Progression-free survival, Range ([2]; Total, all dose groups): 16 to 373 days
- Response rate: Complete response (CR) ([2]; Total, all dose groups): 0 (0.0) N (%)
- Response rate: Partial response (PR) ([2]; Total, all dose groups): 0 (0.0) N (%)
- Response rate: Progressive disease (PD) ([2]; Total, all dose groups): 9 (42.9) N (%)
- Number of cycles completed, Median ([2]; Total, all dose groups): 2
- Number of cycles completed, Range ([2]; Total, all dose groups): 1–13
- complete response (CR) or partial response (PR), in words ([2]; all patients, during the trial): Neither complete response (CR) nor partial response (PR) was found; also recorded: no patients showed CR or PR
- patients who repeated the regimen ([2]; of 21 patients): 11 patients
- Progression-free survival, Range [2, 5]: 79 to 373 days
- median progression-free survival [2, 5]: 227 days
- number of cycles, median [2, 5]: 8 cycles
- number of cycles, range [2, 5]: 3–13 cycles
